Data on 16 compounds can be found in publication PMC8225628, “Bispecific repurposed medicines targeting the viral and immunological arms of COVID-19” (Scientific Reports, 2021).

Values joined by “and” are separate entries in the source; they are usually repeats but may differ in a detail not shown here. Equal entries are not always repeated. Where two headings read alike, the source gives them in different places. *1 amine or outer side, *2 acyl side, *3 side chain or, on linkers, in order; H or OH if unused. Where a SMILES comes first, the peptide text is derived from it. Bridges are numbered along the chain shown (N, C = ends). [ ]: non-standard residue; d: D form. The star is where a group is joined. hTyr(3S-OH,4S-OH,3'-OSO3H) = N[C@H](C(=O)O)[C@H](O)[C@@H](O)c1ccc(O)c(OS(=O)(=O)O)c1; Orn(4R-OH,5R-OH) = O=C([C@H](C[C@@H](O)[C@@H](O)N[*:3])N[*:1])[*:2]; Pro(3S-OH,4S-Me) = C[C@H]1CN[C@H](C(=O)O)[C@H]1O; X1 = CCCCCOc1ccc(-c2cc(-c3ccc(C(=O)*)cc3)no2)cc1; Gln(3R-OH) = NC(=O)C[C@@H](O)[C@H](N)C(=O)O; Hyp = O=C(O)[C@@H]1C[C@@H](O)CN1

In general, IC50 refers to the concentration that gives 50% inhibition. The inhibition is the drop in the measured response relative to a control, in per cent.

For one test, the target named is SARS-CoV-2 PL^pro (Severe acute respiratory syndrome coronavirus 2, UniProt P0DTD1). Nature of the test: biochemical. Conditions: for inhibition at 10 µM: read-out: PL^pro % inhibition at 10 µM.
The next test addresses SARS-CoV-2 M^pro (Severe acute respiratory syndrome coronavirus 2, UniProt P0DTD1). The experiment in a line: biochemical. Conditions: for inhibition at 10 µM: read-out: M^pro % inhibition at 10 µM; for IC50: read-out: M^pro IC50.
Setting [1] is: ReFRAME hits, >5e-6 = not potent enough to determine an IC50, read-out: PL^pro IC50.
Where [2] appears, read: ReFRAME hits, >5e-6 = not potent enough to determine an IC50.

In the case of `CC(=O)[O][Hg][c]1cc(C(C)(C)CC(C)(C)C)ccc1O` [acetomeroctol], the “PL^pro % inhibition at 10 µM” value on SARS-CoV-2 PL^pro is 7%. Moreover, the IC50 on SARS-CoV-2 PL^pro (read-out: PL^pro IC50) was > 5 µM.

Regarding `O=c1cc(-c2ccc(O)c(-c3c(O)cc(O)c4c(=O)cc(-c5ccc(O)cc5)oc34)c2)oc2cc(O)cc(O)c12` [amentoflavone], the inhibition at 10 µM was found to be 4% on SARS-CoV-2 PL^pro (ReFRAME hits, 10 µM) and 34% on SARS-CoV-2 M^pro (ReFRAME hits). For the same compound, the IC50 on SARS-CoV-2 PL^pro (read-out: PL^pro IC50) is > 5 µM.

`O=C1OC2(c3ccccc31)c1cc(I)c(O)c(I)c1Oc1c2cc(I)c(O)c1I` [erythrosine]: the concentration for half-maximal inhibition (IC50) against SARS-CoV-2 PL^pro was > 5 µM. Moreover, the inhibition at 10 µM at SARS-CoV-2 PL^pro (ReFRAME hits, 10 µM) amounted to 20%; at SARS-CoV-2 M^pro (ReFRAME hits) it was 58%.

Consider `CO[C@H]1O[C@H](COS(=O)(=O)[O-])[C@@H](O[C@@H]2O[C@@H](C(=O)[O-])[C@@H](O[C@H]3O[C@H](COS(=O)(=O)[O-])[C@@H](O[C@@H]4O[C@H](C(=O)[O-])[C@@H](O[C@H]5O[C@H](COS(=O)(=O)[O-])[C@@H](O)[C@H](O)[C@H]5NS(=O)(=O)[O-])[C@H](O)[C@H]4O)[C@H](OS(=O)(=O)[O-])[C@H]3NS(=O)(=O)[O-])[C@H](O)[C@H]2OS(=O)(=O)[O-])[C@H](O)[C@H]1NS(=O)(=O)[O-].[Na+].[Na+].[Na+].[Na+].[Na+].[Na+].[Na+].[Na+].[Na+].[Na+]` [fondaparinux (sodium), reference compound], for which the “PL^pro % inhibition at 10 µM” value on SARS-CoV-2 PL^pro (ReFRAME hits, 10 µM) is 23%. Moreover, the results for the IC50 at SARS-CoV-2 PL^pro (setting [1]) and at SARS-CoV-2 M^pro (setting [2]) were > 5 µM and 2000 nM, respectively. Also, the “M^pro % inhibition at 10 µM” value on SARS-CoV-2 M^pro (ReFRAME hits) came out at 80%.

Turning to `Cc1cc(O)c2c(=O)c3c(O)cc(O)c4c5c(O)cc(O)c6c(=O)c7c(O)cc(C)c8c1c2c(c34)c(c78)c65` [hypericin], the inhibition at 10 µM on SARS-CoV-2 PL^pro (ReFRAME hits, 10 µM) turned out to be 12%. The IC50 on SARS-CoV-2 PL^pro (read-out: PL^pro IC50) was > 5 µM.

Consider `[Cl][Hg][Cl]` [mercuric chloride], for which, at SARS-CoV-2 PL^pro (ReFRAME hits, 10 µM), the “PL^pro % inhibition at 10 µM” value is reported as 16%. On SARS-CoV-2 PL^pro (setting [1]), the IC50 was > 5 µM.

Consider `CCCCCOc1ccc(-c2cc(-c3ccc(C(=O)N[C@H]4C[C@@H](O)[C@@H](O)NC(=O)[C@@H]5[C@@H](O)[C@@H](C)CN5C(=O)[C@H]([C@H](O)CC(N)=O)NC(=O)[C@H]([C@H](O)[C@@H](O)c5ccc(O)c(OS(=O)(=O)[O-])c5)NC(=O)[C@@H]5C[C@@H](O)CN5C(=O)[C@H]([C@@H](C)O)NC4=O)cc3)no2)cc1.[Na+]` [micafungin Sodium, reference compound] (X1-[Orn(4R-OH,5R-OH)]T[Hyp][hTyr(3S-OH,4S-OH,3'-OSO3H)][Gln(3R-OH)][Pro(3S-OH,4S-Me)]; lactam 1-C), for which, at SARS-CoV-2 PL^pro (ReFRAME hits, 10 µM), the “PL^pro % inhibition at 10 µM” value was 24%. The IC50 at SARS-CoV-2 PL^pro (setting [1]) was > 5 µM.

As for `O=C(N/N=C/c1ccc([N+](=O)[O-])o1)c1cc([N+](=O)[O-])cc([N+](=O)[O-])c1O` [nifursol], the inhibition at 10 µM at SARS-CoV-2 PL^pro (ReFRAME hits, 10 µM) was determined as 23%; at SARS-CoV-2 M^pro (ReFRAME hits), 43%. Moreover, the IC50 at SARS-CoV-2 PL^pro (read-out: PL^pro IC50) was > 5 µM.

As to `CN1CCCN=C1/C=C/c1cccc(O)c1` [oxantel (pamoate), reference compound], the IC50 on SARS-CoV-2 PL^pro (setting [1]) is > 5 µM.

For `CN1CCCN=C1/C=C/c1cccc(O)c1.O=C(O)c1cc2ccccc2c(Cc2c(O)c(C(=O)O)cc3ccccc23)c1O` [oxantel (pamoate), reference compound], the “PL^pro % inhibition at 10 µM” value at SARS-CoV-2 PL^pro (ReFRAME hits, 10 µM) was determined as 11%.

For `Cc1cccnc1NS(=O)(=O)c1ccc(C#Cc2ccc(O)c(C(=O)O)c2)cc1` [susalimod], the inhibition at 10 µM turned out to be 22% at SARS-CoV-2 PL^pro (ReFRAME hits, 10 µM) and 31% at SARS-CoV-2 M^pro (ReFRAME hits). Also, the IC50 is > 5 µM at SARS-CoV-2 PL^pro (read-out: PL^pro IC50) and > 5000 nM at SARS-CoV-2 M^pro.

As to `CC(=O)Oc1ccccc1C(=O)OC1OC(=O)c2ccccc21` (stereo not shown) [talosalate], on SARS-CoV-2 PL^pro (ReFRAME hits, 10 µM), the “PL^pro % inhibition at 10 µM” value was found to be 13%. For the same compound, the IC50 on SARS-CoV-2 PL^pro (setting [1]) was > 5 µM; at SARS-CoV-2 M^pro (setting [2]), 4000 nM. Further, on SARS-CoV-2 M^pro (ReFRAME hits), the “M^pro % inhibition at 10 µM” value is 80%.

With (-)-epicatechin gallate, the “PL^pro % inhibition at 10 µM” value at SARS-CoV-2 PL^pro (ReFRAME hits, 10 µM) was 11%. Besides, the IC50 at SARS-CoV-2 PL^pro (setting [1]) is > 5 µM.

In the case of SENNOSIDES [reference compound], the “PL^pro % inhibition at 10 µM” value on SARS-CoV-2 PL^pro (ReFRAME hits, 10 µM) amounted to 72%. Besides, the IC50 at SARS-CoV-2 PL^pro (setting [1]) was > 5 µM; at SARS-CoV-2 M^pro (setting [2]) it was 700 nM. In addition, on SARS-CoV-2 M^pro (ReFRAME hits), the “M^pro % inhibition at 10 µM” value turned out to be 92%.

Consider [(-)-epicatechin], for which the “PL^pro % inhibition at 10 µM” value on SARS-CoV-2 PL^pro (ReFRAME hits, 10 µM) is listed as 16%. In addition, the half-maximal inhibitory concentration (IC50) at SARS-CoV-2 PL^pro (setting [1]) was > 5 µM.

Regarding teicoplanin [reference compound], on SARS-CoV-2 PL^pro (ReFRAME hits, 10 µM), the “PL^pro % inhibition at 10 µM” value is 88% and 81%.
